Experimental findings from patent US20220275534A1, “Peptide Library Production Method” (The University of Tokyo, priority 2018, published 2022) are described below.

Positions of bridges follow the written chain, without caps; N, C: chain ends. Non-standard residues stand in square brackets, D forms with d. No end group written: not given here.

Test [1] concerns KgpF. Kind of test: Prenylation of translated thioether-closed artificial cyclic peptides with KgpF, MALDI-TOF-MS analysis (Examples 1-9; 37° C., 18 hours). To be noted: 2 mM DMAPP; for DMAPP adduct 1: MALDI-TOF-MS peak intensity of singly prenylated peptide; for DMAPP adduct 1 / DMAPP adduct 0: 160 μM KgpF; for DMAPP adduct 0: MALDI-TOF-MS peak intensity of unmodified peptide. On the set-up: key to DMAPP adduct 0 / DMAPP adduct 1: 0: N/A; 1: Nothing; 2: Very weak intensity; 3: Medium intensity; 4: Strong intensity. It counts as biochemical, Microcystis aeruginosa. As for the experimental part:
With regards to each of KgpF and OltF, heterogeneous co-expression of a gene synthesized after optimizing the codon of a gene derived from a producing strain was performed in Escherichia coli, followed by purification to obtain a prenylation enzyme.
The analysis was performed using UltrafleXtreme (Bruker Daltonics) or Autoflex II (Bruker Daltonics) and peptide calibration standard II (Bruker Daltonics).
In short, six kinds in total of peptides were obtained by translation and synthesis under (Conditions 1) of the artificial translation system developed by the present inventors. The peptides thus obtained were then reacted with 14.7 μM KgpF at 37° C. for 18 hours in the system shown in (Conditions 2). “DMAPP” used in (Conditions 2) is dimethylallyl pyrophosphoric acid.
(Conditions 1) • FIT system: v7s/v8.0.3 • 19aa-Met: 0.5 mM • ClAc-D or L-Trp-tRNA^fMetCUA: 90 μM • Reaction: 37° C., 60 min. • Scale: […] scale
(Conditions 2) • Translated mixture amount: 2.5 μL (mixture obtained under (Conditions 1)) • KgpF: 14.7 μM • DMAPP: 2 mM • Total amount: 15.7 μL • Reaction: 37° C., 18 hours
The YG280 sequences having the steric configuration of the N terminal Trp serving as an initiation residue of D-form and those of L-form were synthesized, so that two kinds of peptides were prepared in total. These two kinds of artificial cyclic peptides were obtained by translation and synthesis in the artificial translation system (Conditions 3) developed by the present inventors. The peptides thus obtained were then reacted with 53, 160, and 580 μM KgpF in a system shown in (Conditions 4) at 37° C. for 18 hours.
(Conditions 3) • FIT system: v7s/v8.0.3 • 19aa-Met: 0.5 mM • ClAc-D or L-Trp-tRNA^fMetCUA: 120 μM • Reaction: 37° C., 3 hours • Scale: 2.5 μL scale
(Conditions 4) • Translated mixture amount: 2.5 μL (mixture obtained under (Conditions 3)) • KgpF: 53, 160, 580 μM • DMAPP: 2 mM • Reaction: 37° C., 18 hours
The above three kinds of artificial cyclic peptides were obtained by translation and synthesis in the artificial translation system (Conditions 5) developed by the present inventors. The peptides thus obtained were then reacted with KgpF in the system shown below in (Conditions 6) at 37° C. for 18 hours.
(Conditions 5) • FIT system: v7s/v8.0.3 • 19aa-Met: 0.5 mM • ClAc-D or L-Trp-tRNA^fMetCUA: 90 μM • Reaction: 37° C., 60 min. • Scale: 2.5 μL scale
(Conditions 6) • Translated mixture amount: 2.5 μL (mixture obtained under (Conditions 5)) • KgpF: 160 or 580 μM • DMAPP: 2 mM • Reaction: 37° C., 18 hours
The above six kinds of artificial cyclic peptides were obtained by translation and synthesis in the artificial translation system (Conditions 7) developed by the present inventors. The peptides thus obtained were then reacted with 160 μM KgpF in the system shown in (Conditions 8) at 37° C. for 18 hours.
(Conditions 7) • FIT system: v7s/v9.1 • 19aa-Met: 0.5 mM • ClAc-D-Tyr-tRNA^fMetCUA: 90 μM • Reaction: 37° C., 60 min. • Scale: 2.5 μL scale
(Conditions 8) • Translated mixture amount: 2.5 μL (mixture obtained under (Conditions 7)) • KgpF: 160 μM • DMAPP: 2 mM • Reaction: 37° C., 18 hours
The above three kinds of artificial cyclic peptides were obtained by translation and synthesis in the artificial translation system (Conditions 9) developed by the present inventors. The peptides thus obtained were then reacted with 160 μM KgpF in the system shown in (Conditions 10) at 37° C. for 18 hours.
(Conditions 9) • FIT system: v7s/v9.1 • 19aa-Met: 0.5 mM • ClAc-D-Tyr-tRNA^fMetCUA: 90 μM • Reaction: 37° C., 60 min. • Scale: 2.5 μL scale
(Conditions 10) • Translated mixture amount: 2.5 μL (mixture obtained under (Conditions 9)) • KgpF: 160 μM • DMAPP: 2 mM • Reaction: 37° C., 18 hours
The above artificial cyclic peptides were obtained by translation and synthesis in the artificial translation system (Conditions 11) developed by the present inventors. […]

The subject of test [2] is OltF. Kind of test: Prenylation of Trp present at N terminal with OltF (Example 23). It counts as biochemical, Planktothrix. The conditions noted are these: 100 μM OltF, 2.1 mM DMAPP, 37° C., 18 hours (FIG. 19, FIG. 20). As to the method:
The cyclic peptide shown below was obtained by translation and synthesis under the following (Conditions 32) in the artificial translation system developed by the present inventors. The translated mixture thus obtained was then reacted (prenylated) under the following (Conditions 33).
(Conditions 32) • 19aa-mix (19 kinds of proteinogenic amino acids other than M)]: 0.5 mM • ClAc-D-Tyr-tRNA^fMetCUA: 50 μM • Reaction: 37° C. and 30 minutes in an artificial translation-system solution. • Scale: 2.5 μL scale
(Conditions 33) • Translated mixture amount: 2.5 μL (mixture obtained under (Conditions 32)) • OltF: 100 μM • DMAPP: 2.1 mM • Reaction: 37° C., 18 hours • Scale: 5.7 μL scale

Test [3] concerns KgpF v 3.1. Nature of the test: Prenylation of artificial cyclic peptides with 10 μM KgpF v 3.1 (Example 11; Table 7). More on the design: key: 5: strong intensity; 4: medium intensity; 3: weak intensity; 2: very weak intensity; 1: no peak; N/A: not observed. It counts as biochemical, Microcystis aeruginosa. The conditions noted are these: KgpF v 3.1 10 μM. As to the method:
Reaction of the artificial cyclic peptide shown in Table 7 was made under conditions similar to (Conditions 11) and (Conditions 12) except that v8s/v11.1 was used as FIT system, KgpF v 3.1 was used as a prenylation modification enzyme, and the concentration of the KgpF v 3.1 was set at 10 μM. Here, KgpF v 3.1 is an enzyme having a higher purification degree and more improved specific activity than KgpF used under (Conditions 12).

Sequence of KgpF v 3.1 (as listed by the source): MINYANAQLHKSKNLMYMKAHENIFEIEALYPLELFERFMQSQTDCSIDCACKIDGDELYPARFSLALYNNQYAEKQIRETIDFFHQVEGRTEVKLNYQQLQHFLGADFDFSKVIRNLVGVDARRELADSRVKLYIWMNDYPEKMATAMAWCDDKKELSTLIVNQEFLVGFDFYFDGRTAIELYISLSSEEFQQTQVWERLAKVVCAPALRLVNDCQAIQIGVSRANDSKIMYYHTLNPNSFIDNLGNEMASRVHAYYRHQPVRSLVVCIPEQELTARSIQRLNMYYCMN
Sequence of OltF (as listed by the source): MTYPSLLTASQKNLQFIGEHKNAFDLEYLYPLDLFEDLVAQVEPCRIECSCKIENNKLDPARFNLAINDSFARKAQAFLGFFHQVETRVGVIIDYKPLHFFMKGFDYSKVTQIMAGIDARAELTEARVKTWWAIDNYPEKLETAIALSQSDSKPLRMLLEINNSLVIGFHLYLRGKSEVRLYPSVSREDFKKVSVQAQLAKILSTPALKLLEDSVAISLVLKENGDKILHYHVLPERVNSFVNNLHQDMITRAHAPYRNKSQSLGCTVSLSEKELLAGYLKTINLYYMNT

In the case of “YG300-CM11(RFG > NWS): artificial cyclic peptide, template YCDVSGNWSYPC (SEQ ID NO 239)”, in test [1], the “DMAPP adduct 1” value was found to be 4 and the “DMAPP adduct 0” value amounted to 2. On to “AY020: cyclic peptide containing a Trp at N terminal position, SEQ ID NO: 377 (WSNRERGSDDDAGGPC; also: cyclic)”, for which the “prenylation modification with OltF (MALDI-TOF-MS)” value (from here on “prenylation modification with OltF”) in test [2] is on record as “Trp at the N terminal position was prenylated”.

As to “YG289-S2iD7: cyclic peptide obtained by translation and synthesis ({CH2CO}-[dY]HDYRIWRYHTYPC; thioether N-14 (inferred))”, in test [3], the “Peak intensity, The number of prenyl groups added 0” value is recorded as 1 and the “Peak intensity, The number of prenyl groups added 1” value is listed as 5. In addition, the “prenylation modification with KgpF (MALDI-TOF-MS)” value (“prenylation modification with KgpF” for short) in test [1] (Examples 4-7: 160 μM KgpF) is listed as “modified with a prenyl group”.

In the case of “AY016: cyclic peptide containing a Trp at N terminal position, SEQ ID NO: 373 (WHDYRIARYHTYPC; also: cyclic)”, the “prenylation modification with OltF” value in test [2] is recorded as “Trp at the N terminal position was prenylated”.

Turning to “YG304-YG280(FFWFF): artificial cyclic peptide, template YLNGDFFWFFPC (SEQ ID NO 246) ({CH2CO}-[dY]LNGDFFWFFPC; thioether N-12)”, in test [1], the “DMAPP adduct 1” value was determined as 3 and the “DMAPP adduct 0” value was determined as 4. As to “AY015: cyclic peptide containing a Trp at N terminal position, SEQ ID NO: 372 (WSNFRIARYSNSSC; also: cyclic)”, the “prenylation modification with OltF” value in test [2] was “Trp at the N terminal position was prenylated”. Take “YG292-PaktiL5: cyclic peptide obtained by translation and synthesis ({CH2CO}-[dY]IRRPWVPIIYLGC; thioether N-14 (inferred))”: in test [3], the “Peak intensity, The number of prenyl groups added 0” value stood at 1 and the “Peak intensity, The number of prenyl groups added 1” value is 5. In addition, the “prenylation modification with KgpF” value in test [1] (Examples 4-7: 160 μM KgpF) was “modified with a prenyl group”.

With “AY019: cyclic peptide containing a Trp at N terminal position, SEQ ID NO: 376 (WSNVSGRAGYFPC; also: cyclic)”, in test [2], the “prenylation modification with OltF” value is listed as “Trp at the N terminal position was prenylated”.

Consider “YG290-CM11: peptide having no Trp residue in the peptide chain (random region) (Ac-[dW]CDVSGRFGYFPC; thioether (positions not given here); also: thioether ring to Cys2 or Cys13)”, for which, in test [1] (Example 3: 160 or 580 μM KgpF), the “prenylation modification with KgpF” value was “no modified product was found”. As for “AY017: cyclic peptide containing a Trp at N terminal position, SEQ ID NO: 374 (WCDVSGRAGYFPC; also: cyclic)”, in test [2], the “prenylation modification with OltF” value is “Trp at the N terminal position was prenylated”. Regarding “YG298: YG280 mutant having only the N-terminal Trp residue remained ({CH2CO}-[dW]LNGDNNYSTPC; thioether N-12)”, the “prenylation modification with KgpF” value in test [1] (Example 3: 160 or 580 μM KgpF) is reported as “no modified product was found”. As for “YG297-aMD4: cyclic peptide obtained by translation and synthesis ({CH2CO}-[dY]RQFNRRTHEVWNLDC; thioether N-16 (inferred))”, in test [3], the “Peak intensity, The number of prenyl groups added 0” value was 1 and the “Peak intensity, The number of prenyl groups added 1” value is given as 5. Moreover, in test [1] (Examples 4-7: 160 μM KgpF), the “prenylation modification with KgpF” value is “modified with a prenyl group”. Take “AY018: cyclic peptide containing a Trp at N terminal position, SEQ ID NO: 375 (WNNRERGSDDDAGGPC; also: cyclic)”: the “prenylation modification with OltF” value in test [2] is listed as “Trp at the N terminal position was prenylated”.
